From patent US6469023B1, “Heterocyclic spiro-derivative” (Daiichi Pharmaceutical Co., Ltd., priority 1995, dated 2002)
Values after ≈ are worked out from the molar mass of the structure shown. Where two headings read alike, the source gives them in different places.

Experiments:
Assay in all cases: Antibacterial activity, standard method of Japan Society of Chemotherapy (MIC)
Format in all cases: cell-based
[1] = test system: E. coli, NIHJ
Method: (§1) The following Inventive and Reference Examples are provided to further illustrate the present invention, but not by way of limitation. The antibacterial activity of optically active compounds of interest was tested in accordance with the standard method designated by Japan Society of Chemotherapy. The results are shown in Table 1 as MIC (μg/ml). [drawing 10]

[2] = test system: S. aureus, 209P
Method: as §1

[3] = test system: Str. pyogenes, G-36
Method: as §1

[4] = test system: Ps. aeruginosa, 32104
Method: as §1

[5] = test system: S. flexneri, 2A 5503
Method: as §1

[6] = test system: Ps. maltophilia, IID-1275
Method: as §1

[7] = test system: Ps. aeruginosa, 32121
Method: as §1

[8] = test system: Str. faeccalis, ATCC-19433
Method: as §1

[9] = test system: Pr. vulgaris, 08601
Method: as §1

[10] = test system: S. aureus, 87037
Method: as §1

[11] = test system: S. epidermidis, 56500
Method: as §1

[12] = test system: Ser. marcescens, 10100
Method: as §1

[13] = test system: Pr. mirabilis, IFO-3849
Method: as §1

[14] = Escherichia coli, read-out: MIC
[15] = Staphylococcus aureus, read-out: MIC
[16] = Streptococcus pyogenes, G36, Str. pyogenes, read-out: MIC
[17] = Pseudomonas aeruginosa, 32104, Ps. aeruginosa, read-out: MIC
[18] = Shigella flexneri, 2A5503, read-out: MIC
[19] = Stenotrophomonas maltophilia, IID1275, Ps. maltophilia, read-out: MIC
[20] = Pseudomonas aeruginosa, read-out: MIC
[21] = Staphylococcus aureus, 87037, S. aureus, read-out: MIC
[22] = Staphylococcus epidermidis, 56500, S. epidermidis, read-out: MIC
[23] = Serratia marcescens, read-out: MIC
[24] = Proteus mirabilis, IFO3849, Pr. mirabilis, read-out: MIC
[25] = Proteus vulgaris, 08601, Pr. vulgaris, read-out: MIC

## Nc1c(F)c(N2CCC3(CC3N)C2)c(F)c2c1c(=O)c(C(=O)O)cn2[C@@H]1C[C@@H]1F (single isomer, unassigned) [Example 1]
[1]; [14]
  MIC: ≤ 0.003 µg/mL
[2]; [15]
  MIC: ≤ 0.003 µg/mL
[3]; [16]
  MIC: 0.013 µg/mL (≈ 0.0318 µM)
[4]; [17]
  MIC: 0.025 µg/mL (≈ 0.0612 µM)
[5]; [18]
  MIC: ≤ 0.003 µg/mL
[6]; [19]
  MIC: 0.025 µg/mL (≈ 0.0612 µM)
[7]; [20]
  MIC: 0.025 µg/mL (≈ 0.0612 µM)
[8]; read-out: MIC
  MIC: 0.025 µg/mL (≈ 0.0612 µM)
[9]; Pr. vulgaris
  MIC: 0.006 µg/mL (≈ 0.0147 µM)
[10]; [21]
  MIC: 0.05 µg/mL (≈ 0.122 µM)
[11]; [22]
  MIC: ≤ 0.003 µg/mL
[12]; [23]
  MIC: 0.025 µg/mL (≈ 0.0612 µM)
[13]; [24]
  MIC: 0.013 µg/mL (≈ 0.0318 µM)

## Cc1c(N2CCC3(CC3N)C2)c(F)cc2c(=O)c(C(=O)O)cn([C@@H]3C[C@@H]3F)c12 (single isomer, unassigned) [Example 6]
[1]; [14]
  MIC: ≤ 0.003 µg/mL
[2]; [15]
  MIC: ≤ 0.003 µg/mL
[3]; Str. pyogenes
  MIC: 0.013 µg/mL (≈ 0.0334 µM)
[4]; [17]
  MIC: 0.05 µg/mL (≈ 0.128 µM)
[5]; [18]
  MIC: ≤ 0.003 µg/mL
[6]; [19]
  MIC: 0.05 µg/mL (≈ 0.128 µM)
[7]; [20]
  MIC: 0.025 µg/mL (≈ 0.0642 µM)
[8]; read-out: MIC
  MIC: 0.05 µg/mL (≈ 0.128 µM)
[9]; [25]
  MIC: ≤ 0.003 µg/mL
[10]; S. aureus
  MIC: 0.10 µg/mL (≈ 0.257 µM)
[11]; S. epidermidis
  MIC: 0.013 µg/mL (≈ 0.0334 µM)
[12]; [23]
  MIC: 0.025 µg/mL (≈ 0.0642 µM)
[13]; [24]
  MIC: 0.013 µg/mL (≈ 0.0334 µM)

## Nc1c(F)c(N2CCC3(CC3N)C2)c(F)c2c1c(=O)c(C(=O)O)cn2[C@@H]1C[C@@H]1F (single isomer, unassigned) [Example 4]
[1]
  MIC: ≦0.003 μg/ml
[2]
  MIC: ≦0.003 μg/ml
[3]; Str. pyogenes
  MIC: 0.013 µg/mL (≈ 0.0318 µM)
[4]; Ps. aeruginosa
  MIC: 0.05 µg/mL (≈ 0.122 µM)
[5]
  MIC: ≦0.003 μg/ml
[6]; Ps. maltophilia
  MIC: 0.025 µg/mL (≈ 0.0612 µM)
[7]
  MIC: 0.025 µg/mL (≈ 0.0612 µM)
[8]
  MIC: 0.025 µg/mL (≈ 0.0612 µM)
[9]; Pr. vulgaris
  MIC: 0.013 µg/mL (≈ 0.0318 µM)
[10]; S. aureus
  MIC: 0.05 µg/mL (≈ 0.122 µM)
[11]; S. epidermidis
  MIC: ≦0.003 μg/ml
[12]
  MIC: 0.025 µg/mL (≈ 0.0612 µM)
[13]; Pr. mirabilis
  MIC: 0.025 µg/mL (≈ 0.0612 µM)

## Cc1c(N2CCC3(CC3N)C2)c(F)cc2c(=O)c(C(=O)O)cn([C@@H]3C[C@@H]3F)c12 (single isomer, unassigned) [Example 7]
[1]
  MIC: ≦0.003 μg/ml
[2]
  MIC: ≦0.003 μg/ml
[3]; Str. pyogenes
  MIC: 0.006 µg/mL (≈ 0.0154 µM)
[4]; Ps. aeruginosa
  MIC: 0.05 µg/mL (≈ 0.128 µM)
[5]
  MIC: ≦0.003 μg/ml
[6]; Ps. maltophilia
  MIC: 0.025 µg/mL (≈ 0.0642 µM)
[7]
  MIC: 0.025 µg/mL (≈ 0.0642 µM)
[8]
  MIC: 0.025 µg/mL (≈ 0.0642 µM)
[9]; Pr. vulgaris
  MIC: ≦0.003 μg/ml
[10]; S. aureus
  MIC: 0.25 µg/mL (≈ 0.642 µM)
[11]; S. epidermidis
  MIC: 0.006 µg/mL (≈ 0.0154 µM)
[12]
  MIC: 0.025 µg/mL (≈ 0.0642 µM)
[13]; Pr. mirabilis
  MIC: 0.013 µg/mL (≈ 0.0334 µM)

## Cc1c(N2CCC3(CC3N)C2)c(F)c(N)c2c(=O)c(C(=O)O)cn([C@@H]3C[C@@H]3F)c12 (single isomer, unassigned) [Example 5]
[1]; [14]
  MIC: ≤ 0.003 µg/mL
[2]; [15]
  MIC: ≤ 0.003 µg/mL
[3]; [16]
  MIC: 0.05 µg/mL (≈ 0.124 µM)
[4]; [17]
  MIC: 0.05 µg/mL (≈ 0.124 µM)
[5]; [18]
  MIC: ≤ 0.003 µg/mL
[6]; [19]
  MIC: 0.05 µg/mL (≈ 0.124 µM)
[7]; [20]
  MIC: 0.025 µg/mL (≈ 0.0618 µM)
[8]; read-out: MIC
  MIC: 0.05 µg/mL (≈ 0.124 µM)
[9]; [25]
  MIC: 0.013 µg/mL (≈ 0.0321 µM)
[10]; [21]
  MIC: 0.1 µg/mL (≈ 0.247 µM)
[11]; [22]
  MIC: 0.013 µg/mL (≈ 0.0321 µM)
[12]; [23]
  MIC: 0.05 µg/mL (≈ 0.124 µM)
[13]; [24]
  MIC: 0.05 µg/mL (≈ 0.124 µM)
